Reference: article PMC7617459, “Comparative Evaluation and Profiling of Chemical Tools for the Nuclear Hormone Receptor Family 2” (ACS pharmacology & translational science, 2025)
Like-named read-outs stand apart in the source and are kept apart here.

Columns and labels:
human insulin promoter = details: insulin promoter assay, cited from earlier work
HNF4α [1] = target: HNF4α; design: method as in PMID 22840769; details: cited from earlier work
[2] = system: HNF4α and a set of its target genes; design: method as in PMID 22840769; details: T6PNE cells; cited from earlier work
HNF4α [3] = target: T1, HNF4α (Homo sapiens, UniProt P41235); test: Gal4-hybrid reporter gene assay HNF4α; details: 3 µM, HEK293T
T1 sequence (P41235 147-377 limits assumed): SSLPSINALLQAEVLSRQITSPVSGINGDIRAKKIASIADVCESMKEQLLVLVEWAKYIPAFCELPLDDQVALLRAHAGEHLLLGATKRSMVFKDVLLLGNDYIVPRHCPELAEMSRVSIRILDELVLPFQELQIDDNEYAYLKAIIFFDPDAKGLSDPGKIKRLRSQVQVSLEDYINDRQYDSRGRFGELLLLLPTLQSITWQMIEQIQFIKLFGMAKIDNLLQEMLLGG

[4] = cited from earlier work
[5] = design: method as in PMID 31298602, PMID 30702885; details: cited from earlier work
TLX [6] = target: T2, TLX (Homo sapiens, UniProt Q9Y466); test: Gal4-hybrid reporter gene assay TLX; type: cell-based; details: selected test concentration (Figure 3)
T2 construct: encoding the hinge region and the LBD of the canonical isoform of the respective human nuclear receptors; expressed in transfected cells; host or cells: HEK293T

TLX [7] = details: DSF assays; cited from earlier work
TLX [8] = details: reporter gene assay; read-out: EC50; cited from earlier work
TLX-regulated genes = details: human glioblastoma cells (T98G), qRT-PCR; cited from earlier work
TLX expression = details: cited from earlier work
HEK293T cells = details: cited from earlier work
[9] = microsomes; cited from earlier work
PNR (NR2E3) = target: T3, PNR (NR2E3) (Homo sapiens, UniProt Q9Y5X4); test: Gal4-hybrid reporter gene assay PNR; type: cell-based; details: selected test concentration (Figure 3)
T3 construct: encoding the hinge region and the LBD of the canonical isoform of the respective human nuclear receptors; expressed in transfected cells; host or cells: HEK293T
T3 sequence (Q9Y5X4 169-410 limits assumed): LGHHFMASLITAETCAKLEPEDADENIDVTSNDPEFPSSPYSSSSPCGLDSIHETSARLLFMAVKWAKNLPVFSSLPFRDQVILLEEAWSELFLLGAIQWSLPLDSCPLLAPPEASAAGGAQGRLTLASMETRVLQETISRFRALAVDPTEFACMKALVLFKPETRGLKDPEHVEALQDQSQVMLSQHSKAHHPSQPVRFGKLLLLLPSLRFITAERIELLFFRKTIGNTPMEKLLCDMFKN
Method: Gal4-hybrid reporter gene assays were performed as described previously using the plasmids pFA-CMV-hTHRα-LBD,[170] pFA-CMV-hRARα-LBD,[171] pFA-CMV-hPPARα-LBD,[172] pFA-CMV-hPPARγ-LBD,[172] pFA-CMV-hPPARδ-LBD,[172] pFA-CMV-revERBα-LBD,[158] pFA-CMV-hRORα-LBD,[173] pFA-CMV-hLXRα-LBD,[118] pFA-CMV-hFXR-LBD,[174] pFA-CMV-hVDR-LBD,[171] pFA-CMV-hCAR-LBD,[171] pFA-CMV-hHNF4α-LBD,[110] pFA-CMV-hRXRα-LBD,[175] pFA-CMV-hTR2-LBD,[102] pFA-CMV-hTR4-LBD,[102] pFA-CMV-hTLX-LBD,[102] pFA-CMV-hNR2E3-LBD,[102] pFA-CMV-hNur77-LBD,[176] pFA-CMV-hSF1-LBD[158] encoding the hinge region and the LBD of the canonical isoform of the respective human nuclear receptors. pFR-Luc (Stratagene, La Jolla, CA, USA) was used as a reporter plasmid, and pRL-SV40 (Promega, Madison, WI, USA) was used for normalization of transfection efficiency and cell growth. HEK293T cells (German Collection of Microorganisms and Cell Culture GmbH, DSMZ) were cultured in Dulbecco’s modified Eagle’s medium (DMEM), high glucose supplemented with 10% fetal calf serum (FCS), sodium pyruvate (1 mM), penicillin (100 U/mL), and streptomycin (100 μg/mL) at 37 °C and 5% CO2 and seeded in 96-well plates (3 × 10^4 cells/well). The medium was changed to Opti-MEM without supplements, and the cells were transiently transfected with one pFA-CMV-hNR-LBD clone, pFR-Luc, and pRL-SV40 using Lipofectamine LTX reagent (Invitrogen, Thermo Fisher Scientific) according to the manufacturer’s instructions. Five hours after transfection, cells were incubated with the test compounds in Opti-MEM supplemented with penicillin (100 U/mL), streptomycin (100 μg/mL), and 0.1% DMSO. Each sample was set up in duplicates and tested in at least three independent experiments. After 16 h incubation, luciferase activity was measured using the Dual-Glo Luciferase Assay System (Promega) according to the manufacturer’s protocol on a Tecan Spark luminometer (Tecan Deutschland GmbH, Crailsheim, Germany). Firefly luminescence was divided by Renilla luminescence and multiplied by 1000 resulting in relative light units (RLUs) to normalize for transfection efficiency and cell growth. Fold activation was obtained by dividing the mean RLU of the test compound by the mean^a RLU of the untreated control, and relative activation was calculated by dividing the fold activation of a test sample by the fold activation of the respective reference agonist. Antagonistic effects were evaluated by coincubation of the test compound with the respective reference ligand.

nuclear receptors = test: Selectivity profiling in Gal4-hybrid reporter gene assay panel; type: cell-based, human; details: at active concentration
Method: Compounds were tested at concentrations around EC90 according to the literature or at the highest nontoxic concentration (from the multiplex toxicity assay). […] (b) Selectivity profiling of NR2 modulators in a representative panel of nuclear receptors outside the NR2 family. […] Effects <5% of the respective reference ligands were considered as not relevant and omitted. Only effects are shown that are statistically significant against VP16 ctrl (Figure S3); n = 3.

COS-7 cells = test: Multiplex toxicity assay; type: cell-based; details: 24 h, at active concentration
Method: COS-7 cells (DSMZ #ACC 60) were cultured at 37°C and 5% CO2 in DMEM high glucose medium supplemented with sodium pyruvate (1 mM), penicillin (100 U/mL), streptomycin (100 µg/mL), and 10% fetal calf serum (FCS). After aspirating the wells, the cells were seeded at 1x10^5 cells per well in complete culture medium. […] Each sample was prepared in at least 4 biologically independent replicates. After incubation for 24 h, the wells were aspirated and incubated for 30 min with stimulation medium containing 1 µM NucView® 405 fluorogenic caspase-3 substrate (#10405, Biotium, Fremont, USA) and Live-or-Dye Nuc-Fix Red (0.05x, Biotium, Inc., Fremont, CA, 1691 USA) to detect apoptosis and necrosis, respectively. After incubation, a total of 6 fluorescence images per well at 10x magnification were taken to detect NucView®-positive (Ex: 381–400 nm, Em: 414–450 nm) and Live-or-Dye-positive cells (Ex: 543−566 nm, Em: 580−611 nm) using on a Tecan Spark Cyto (Tecan Group AG). Reference readings for background correction and detection of auto-fluorescence were taken at 414–450 nm prior to staining. Thereafter, wells were aspirated, the cells were incubated for 3 h with 90 µL culture medium (0.2% FCS) and 10 µL Cell Counting Kit-8 solution (CCK-8, MedChem Express #HY-K0301), and absorbance was measured at 1, 2, and 3h of incubation at 450 nm on a Tecan Spark Cyto to assess metabolic activity of the cells. Before drug administration, after the first medium exchange, 24 h after drug administration, and after fluorescence imaging cell confluence was assessed using the Tecan Spark Cyto, to account for changes in cell confluence due to drug administration and cell handling. The number of apoptotic cells, metabolic activity, and changes in cell confluence in response to drug treatment were all normalized to the vehicle control of each biological replicate individually.

ATF6 = ATF6 activity assay; type: cell-based; details: tunicamycin treated Hela ATF6 reporter cells
Description: Next, we evaluated the potential impact of the NR2 modulator set on endoplasmic reticulum (ER) stress in an ATF6 activity assay (Fig. 4b). The activating transcription factor 6 (ATF6) participates in the unfolded protein response and is activated under ER stress.[164] Tunicamycin-induced ATF6 activity was not affected by RXR and TLX modulators but was reduced by the inverse PNR agonists 22 and 23.
Hela cells containing a Renilla luciferase reporter gene for ATF6 activity (ATF6 Leeporter™ Luciferase Reporter-HeLa Cell Line, Abeomics Inc.; #14-138ACL) were cultured in DMEM supplemented with 10% heat-inactivated FCS, penicillin (100 U/mL), streptomycin (100 μg/mL) and puromycin (3 µg/mL) at 37°C and 5% (v/v) CO2 and seeded in 96-well plates (1 × 10^5 per well). After 24 h, the cells were incubated with the test compounds solubilized with 0.1% DMSO in the same medium without puromycin. After 4 h of incubation, tunicamycin (100 ng/mL) was added. After another 18 h of incubation, cells were assayed for renilla luminescence using DualGlo reagent (Promega) on a Tecan SPARK Cyto (Tecan). Test samples were normalized to the 0.1% DMSO control.

PNR [10] = details: reporter gene assay; cited from earlier work
Gal4-VP16 = system: Gal4-VP16; design: method as in PMID 16834531; details: cited from earlier work
rhodopsin expression = system: rhodopsin expression; design: method as in PMID 29148976, PMID 27893103; details: cited from earlier work; for rhodopsin expression: murine retinal cells, immunofluorescence and qRT-PCR
PNR [11] = target: PNR; design: method as in PMID 29148976; details: ITC, cited from earlier work
NR2E3 = system: NR2E3; design: method as in PMID 16879962; details: reporter gene assay, cited from earlier work
COUP-TF2 = system: COUP-TF2; design: method as in PMID 32494682; details: reporter gene assay; cited from earlier work
[12] = system: HNF4α, RXRα, PPARα, LXRα, GR, PR, ER, RAR, RORγ, AR, and COUP-TF1; design: method as in PMID 32494682; details: cited from earlier work
[13] = system: COUP-TF2 target genes FOXM1 and CDK1; design: method as in PMID 32494682; details: prostate cancer cells; cited from earlier work

T2 sequence (Q9Y466 155-383 limits assumed): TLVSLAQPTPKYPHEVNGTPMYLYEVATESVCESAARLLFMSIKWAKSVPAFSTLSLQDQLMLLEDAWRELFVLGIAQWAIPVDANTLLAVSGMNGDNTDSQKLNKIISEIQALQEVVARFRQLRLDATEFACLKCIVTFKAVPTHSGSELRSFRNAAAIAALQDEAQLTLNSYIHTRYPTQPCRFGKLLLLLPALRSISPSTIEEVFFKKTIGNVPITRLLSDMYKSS

Q: What does the source list for `Cc1nc2ccccc2n1S(=O)(=O)c1cc([N+](=O)[O-])ccc1Cl` [compound 1]?
A: IC50 (human insulin promoter): 900 nM; IC50 (human insulin promoter; listed as BIM5078 (1)): 930 nM; Kd (HNF4α [1]; Try/Trp fluorescence quenching assays): 12 nM; EC50 (HNF4α [1]; direct binding, read-out: EC50 of quenching of intrinsic Tyr/Trp fluorescence of HNF4α): 11.9 nM; expression of HNF4α and a set of its target genes [2]: suppress the expression; effects on HNF4 activity (HNF4α [3]): no effects

Q: Which “adverse effects associated with clinical use” value [4] does the source give for `C=C(c1ccc(C(=O)O)cc1)c1cc2c(cc1C)C(C)(C)CCC2(C)C` [compound 6, bexarotene] here?
A: elevated triglyceride and cholesterol levels, leukopenia, hypothyroidism, and an increased risk of acute pancreatitis

Q: And the lipophilicity [5]?
A: highly lipophilic

Q: Which results are given for `Cc1cc(C(=O)N2CCN(C(c3ccccc3)c3ccccc3)CC2)nn1C` [compound 15]?
A: TLX modulation (TLX [6]): not observed; Kd (TLX [7]): 650 nM; EC50 (TLX [8]): 1000 nM; SIRT, SLC1a1 and p21 induction (TLX-regulated genes): trend toward SIRT and SLC1a1 but not p21 induction; TLX expression (TLX expression): not affected; toxicity in WST-1 assay (HEK293T cells): Low toxicity; t1/2 against microsomal degradation [9]: < 15 min

Q: With `Cc1cc(C)cc(NC(=O)CCc2nc3sc4c(c3c(=O)[nH]2)CCCC4)c1` [compound 22] as the compound, how does the PNR modulation (PNR (NR2E3)) read?
A: confirmed albeit with rather low efficacy

Q: What about the “selectivity over other nuclear receptors” value (nuclear receptors) of the same compound?
A: Favorable selectivity profiles

Q: And the cytotoxicity (COS-7 cells)?
A: lack of cytotoxicity

Q: What about the “tunicamycin-induced ATF6 activity” value (ATF6) of the same compound?
A: reduced

Q: And the IC50 (PNR [10])?
A: 250 nM

Q: And the “activity in control experiments using Gal4-VP16” value (Gal4-VP16)?
A: inactive

Q: And the rhodopsin expression (rhodopsin expression)?
A: dose-dependent reduction

Q: With `COc1cc2nc(CN3CC=C(c4ccccc4)CC3)nc(O)c2cc1OC` [compound 23] as the compound, how does the PNR modulation (PNR (NR2E3)) read?
A: confirmed albeit with rather low efficacy

Q: And the “selectivity over other nuclear receptors” value (nuclear receptors)?
A: Favorable selectivity profiles

Q: And the cytotoxicity (COS-7 cells)?
A: lack of cytotoxicity

Q: What about the “tunicamycin-induced ATF6 activity” value (ATF6) of the same compound?
A: reduced

Q: And the IC50 (PNR [10])?
A: 70 nM

Q: What about the “activity in control experiments using Gal4-VP16” value (Gal4-VP16) of the same compound?
A: inactive

Q: And the “Rho mRNA expression” value (rhodopsin expression)?
A: decreased

Q: What about the rhodopsin expression (rhodopsin expression) of the same compound?
A: dose-dependent reduction

Q: And the Kd (PNR [11])?
A: 67000 nM

Q: What about the Kd (PNR [11]; listed as Photoregulin3 (23)) of the same compound?
A: 64000 nM

Q: What does the source list for `O=C(Nc1ccc(-c2nc3ccc(NC(=O)C4CC4)cc3[nH]2)cc1)c1ccccc1Cl` [compound 24]?
A: EC50 (NR2E3; read-out: EC50 (first value of cell)): 141 nM; EC50 (NR2E3; read-out: EC50 (second value of cell)): 35 nM

Q: With `COc1ccc(CCNc2ncnc3sccc23)cc1OC` [compound 28] as the compound, how does the IC50 (COUP-TF2) read?
A: 2800 nM

Q: And the “interaction with related NRs in pulldown assay” value [12]?
A: no relevant interaction

Q: And the “expression of COUP-TF2 target genes FOXM1 and CDK1” value [13]?
A: altered expression
